Test results: patent US11001590B2, “Pyrazolopyrimidine derivatives” (BAYER ANIMAL HEALTH GMBH, priority 2016, dated 2021)

How the values were obtained:
[1] = system: Nippostrongylus brasiliensis; assay: In vitro assay 2: Nippostrongylus brasiliensis (NIPOBR), acetylcholine esterase readout; settings: adult worms, read-out: activity (reduction of AChE compared to negative control); for inhibition at 10 µg/mL: 10 μg/ml (10 ppm); for inhibition at 1 µg/mL: 1 μg/ml (1 ppm)
Experimental: In Vitro Assay 2: Nippostronqylus Brasiliensis (NIPOBR)
Adult Nippostrongylus brasiliensis were washed with saline buffer containing 100 U/ml penicillin, 0.1 mg/ml streptomycin and 2.5 μg/ml amphotericin B. Test compounds were dissolved in DMSO and worms were incubated in medium in a final concentration of 10 μg/ml (10 ppm) respectively 1 μg/ml (1 ppm). An aliquot of the medium was used to determine the acetylcholine esterase activity in comparison to a negative control. The principle of measuring acetylcholine esterase as readout for anthelmintic activity was described in Rapson et al (1986) and Rapson et al (1987).

[2] = system: Dirofilaria immitis microfilariae; assay: In vitro assay 3: Dirofilaria immitis microfilariae (DIROIM L1), motility; settings: 72 h, reduction of motility vs negative control, 72 h incubation
[3] = system: Dirofilaria immitis third-stage larvae; assay: In vitro assay 4: Dirofilaria immitis (DIROIM L4), motility of larvae; settings: 72 h
[4] = system: Litomosoides sigmodontis third-stage larvae; assay: In vitro assay 7: Litomosoides sigmodontis L3 (LTMOSI), motility; settings: 72 h, reduction of motility vs negative control, 72 h incubation
[5] = log P by HPLC on reversed phase columns (Method L0; [a] acidic, [b] neutral range)
Experimental: Calibration was done with straight-chain alkan-2-ones (with 3 to 16 carbon atoms) with known log P values (measurement of log P values using retention times with linear interpolation between successive alkanones). Lambda-max-values were determined using UV-spectra from 200 nm to 400 nm and the peak values of the chromatographic signals.

C. elegans Slo-1a = C. elegans Slo-1a (Caenorhabditis elegans, UniProt Q95V25); assay: In vitro assay 1: C. elegans Slo-1a, action at a recombinant C. elegans CHO cell line (membrane potential measurement)
Sequence of C. elegans Slo-1a (Q95V25 whole entry): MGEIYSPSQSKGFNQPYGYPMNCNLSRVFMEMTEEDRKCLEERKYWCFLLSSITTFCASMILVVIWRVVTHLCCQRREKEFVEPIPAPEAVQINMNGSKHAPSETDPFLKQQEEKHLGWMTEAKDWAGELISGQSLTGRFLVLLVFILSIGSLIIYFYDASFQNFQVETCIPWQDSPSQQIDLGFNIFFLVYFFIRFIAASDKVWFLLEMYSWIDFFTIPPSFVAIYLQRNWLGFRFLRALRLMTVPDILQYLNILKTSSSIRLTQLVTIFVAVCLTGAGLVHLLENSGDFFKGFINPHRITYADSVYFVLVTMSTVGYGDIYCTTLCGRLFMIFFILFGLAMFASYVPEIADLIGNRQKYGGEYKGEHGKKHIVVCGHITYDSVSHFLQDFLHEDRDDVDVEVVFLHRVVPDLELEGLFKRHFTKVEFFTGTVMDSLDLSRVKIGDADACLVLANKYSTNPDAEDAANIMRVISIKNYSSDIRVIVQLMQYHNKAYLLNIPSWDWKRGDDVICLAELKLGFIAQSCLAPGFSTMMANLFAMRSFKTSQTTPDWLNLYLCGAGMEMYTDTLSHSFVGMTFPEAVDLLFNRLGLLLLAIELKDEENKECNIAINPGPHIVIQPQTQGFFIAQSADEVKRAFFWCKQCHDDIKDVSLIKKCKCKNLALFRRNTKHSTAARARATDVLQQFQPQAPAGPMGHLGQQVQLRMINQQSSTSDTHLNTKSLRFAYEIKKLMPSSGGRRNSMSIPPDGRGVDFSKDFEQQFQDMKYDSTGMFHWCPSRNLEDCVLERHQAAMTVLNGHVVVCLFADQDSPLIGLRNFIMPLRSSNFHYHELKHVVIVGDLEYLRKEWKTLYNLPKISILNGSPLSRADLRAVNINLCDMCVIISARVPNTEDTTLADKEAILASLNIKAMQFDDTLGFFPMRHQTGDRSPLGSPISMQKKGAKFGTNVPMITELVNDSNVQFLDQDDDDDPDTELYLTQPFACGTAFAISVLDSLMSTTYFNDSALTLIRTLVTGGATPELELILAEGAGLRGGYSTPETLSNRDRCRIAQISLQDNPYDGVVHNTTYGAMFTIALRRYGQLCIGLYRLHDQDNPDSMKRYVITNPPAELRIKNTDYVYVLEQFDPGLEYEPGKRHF

Structure (SMILES)	inhibition at 10 µg/mL [1] [%]	EC50 [2] [µg/mL]	EC50 [3] [µg/mL]	EC50 [4] [µg/mL]	chromatographic logP [5]	EC50 (C. elegans Slo-1a) [nM]	inhibition at 1 µg/mL [1] [%]
Cc1nn2c(C(C)C)c(C(=O)N[C@H]3CCOc4ccccc43)cnc2c1-c1c(F)cccc1F [Example 96]	> 80	< 0.1	< 0.1	< 0.1	4.13	3.98	
Cc1nn2c(C(C)C)c(C(=O)N[C@H]3CCc4ccccc43)cnc2c1-c1cc(Cl)c(F)c(Cl)c1 [Example 127]	> 80	< 0.1	< 0.1	< 0.1	5.91	10	
Cc1nn2c(C(C)C)c(C(=O)N[C@H]3CCCc4ccccc43)cnc2c1-c1cc(Cl)c(F)c(Cl)c1 [Example 128]	> 80	< 0.1	< 0.1	< 0.1	6.26	12.6	
Cc1nn2c(C(C)C)c(C(=O)N[C@H]3CCOc4ccccc43)cnc2c1-c1c(F)cccc1Cl [Example 130]	> 80	< 0.1	< 0.1	< 0.1	4.44	3.98	
Cc1nn2c(C(C)C)c(C(=O)N[C@H]3CCOc4ccccc43)cnc2c1-c1cccc(F)c1F [Example 136]	> 80	< 0.1	< 0.1	< 0.1	4.34	6.31	> 80
Cc1nn2c(C(C)C)c(C(=O)N[C@H]3CCc4ccccc43)cnc2c1-c1cccc(F)c1F [Example 141]	> 80	< 0.1	< 0.1	< 0.1	4.6	7.94	
Cc1nn2c(C(C)C)c(C(=O)N[C@H]3CCOc4ccccc43)cnc2c1-c1cc(Cl)cc(Cl)c1 [Example 152]	> 80	< 0.1	< 1	< 0.1	5.84	20	> 80
Cc1nn2c(C(C)C)c(C(=O)N[C@H]3CCOc4ccccc43)cnc2c1-c1ccc(F)c(F)c1F [Example 166]	> 80	< 0.1	< 0.1	< 0.1	4.54	1.58	
Cc1nn2c(C(C)C)c(C(=O)N[C@H]3CCOc4ccccc43)cnc2c1-c1cccc(Cl)c1Cl [Example 170]	> 80	< 0.1	< 0.1	< 0.1	4.85	2	
COc1cccc(-c2c(C)nn3c(C(C)C)c(C(=O)N[C@H]4CCOc5ccccc54)cnc23)c1F [Example 184]	> 80	< 0.1	< 0.1	< 0.1	2.84	3.16	
Cc1nn2c(C(C)C)c(C(=O)N[C@H]3CCOc4ccccc43)cnc2c1-c1ccc(F)c(Cl)c1 [Example 186]	> 80	< 0.1	< 0.1	< 0.1	5.01	15.8	
Cc1nn2c(C(C)C)c(C(=O)N[C@H]3CCOc4ccccc43)cnc2c1-c1cccc(Cl)c1F [Example 189]	> 80	< 0.1	< 0.1	< 0.1	4.72	1.26	
Cc1nn2c(C(C)C)c(C(=O)N[C@H]3CCOc4ccccc43)cnc2c1-c1cc(Cl)c(F)c(Cl)c1 [Example 194]	> 80	< 0.1	< 0.1	< 0.1	5.65	12.6	> 80
Cc1nn2c(C(C)C)c(C(=O)N[C@H]3CCOc4ccccc43)cnc2c1-c1ncc(Cl)cc1Cl [Example 208]	> 80	< 0.1	< 0.1	< 0.1	4.27	1.58	> 80
Cc1nn2c(C(C)C)c(C(=O)N[C@H]3CCc4ccccc43)cnc2c1-c1ncc(Cl)cc1Cl [Example 209]	> 80	< 0.1	< 0.1		4.51	1.26	> 80
Cc1nn2c(C(C)C)c(C(=O)N[C@H]3CCOc4ccccc43)cnc2c1-c1ccc(F)c(Cl)c1F [Example 213]	> 80	< 0.1	< 0.1	< 0.1	4.8	1.58	
Cc1nn2c(C(C)C)c(C(=O)N[C@H]3CCOc4ccccc43)cnc2c1-c1c(F)cc(F)cc1F [Example 236]	> 80	< 1	< 0.1	< 0.1	4.3	2	> 80
COc1cc(-c2c(C)nn3c(C(C)C)c(C(=O)N[C@H]4CCOc5ccccc54)cnc23)cc(F)c1F [Example 241]	> 80	< 1	< 0.1	< 0.1	4.6	6.31	> 80
Cc1nn2c(C(C)C)c(C(=O)N[C@H]3CCOc4ccccc43)cnc2c1-c1ccc(F)c2c1OCO2 [Example 263]	> 80	< 0.1	< 0.1		4.13	1.58	> 80
Cc1nn2c(C(C)C)c(C(=O)N[C@H]3CCOc4ccccc43)cnc2c1-c1cccc(N(C)C)c1 [Example 393]	> 80	< 0.1			3.64	10	
Cc1nn2c(C(C)C)c(C(=O)N[C@H]3CCOc4ccccc43)cnc2c1-c1cnn(CC2CC2)c1 [Example 419]	> 80	< 10			3.59	7.94	
Cc1nn2c(C(C)C)c(C(=O)N[C@H]3CCOc4ccccc43)cnc2c1-c1cccc(N2CC(F)(F)C2)c1 [Example 440]	> 80	< 1			4.64	12.6	
COCc1cccc(-c2c(C)nn3c(C4CC4)c(C(=O)N[C@H]4CCOc5ccccc54)cnc23)c1 [Example 451]	> 80	< 1			3.43	7.94	
Cc1nn2c(C(C)C)c(C(=O)N[C@H]3CCOc4ccccc43)cnc2c1-c1cccc(N2CC(F)C2)c1 [Example 459]	> 80	< 1			4.36	10	
Cc1nn2c(C3CC3)c(C(=O)N[C@H]3CCOc4ccccc43)cnc2c1-c1cnn(CC2CC2)c1 [Example 470]	> 80	< 10			2.92	7.94	
Cc1nn2c(N3CCOCC3)c(C(=O)N[C@H]3CCOc4ccccc43)cnc2c1-c1cc(Cl)cc(Cl)c1 [Example 516]	> 80	< 0.1	< 0.1		3.99	5.01	> 80
